Legend:
[1] = system: pCHK1 (S345) in Colo320 DM cells; assay: CHK1 cellular activity (phospho-CHK1 AlphaLisa); format: cell-based, human; conditions: Homo sapiens, COLO 320DM, 16 h, compound overnight (approximately 16 hours)
Protocol: Phospho-CHK1 cellular activity was measured as a marker of replication stress which is a consequence of RNR inhibition.
Colo320 DM cells (ATCC #CCL-220, derived from human colorectal adenocarcinoma, Dukes' type C) were seeded on a 96-well cell culture treated assay plate at a density of 50,000 cells/well in 200 μL of RPMI-1640 media supplemented with 10% Fetal Bovine Serum and incubated at 37 degrees Celsius overnight. The following day, test compound dilutions were added directly to the plated cells by a Tecan digital dispenser to a final DMSO concentration of <0.5% and incubated at 37 degrees Celsius overnight (approximately 16 hours). The following day all culture media is removed from the cells. 75 μL of 1× AlphaLisa lysis buffer is added to each well and plates are agitated on a shaker for 30 minutes at room temperature. The lysis of cells and detection of pCHK1 (S345) are performed with reagents contained within the AlphaLisa Sure Fire assay kit (Perkin Elmer #ALSU-PCHK1-A) according to the manufacturer's instructions. 10 μL of each lysate was then transferred to a white, 384-well assay plate (Perkin Elmer #6008280). 5 μL of Acceptor mix was then added to each well of lysate in the white, 384-well assay plate and incubated in the dark at room temperature for 60 minutes. 5 μL of Donor mix was then added to each well of the white, 384-well assay plate in subdued light and incubated at room temperature for 60 minutes. Plates are read on an Alpha Technology-compatible plate reader using standard AlphaLisa settings.

RNR (RNR1:RNR2) = RNR (RNR1:RNR2) (Homo sapiens (Human), UniProt P23921+P31350); assay: RNR enzyme activity, rapid-fire mass spectrometry (RFMS) assay; format: biochemical; conditions: [RNR] 50 nM, 1:1 RNR1:RNR2, [CDP] 5 μM, [ATP] 1 mM, 37° C., 45 min
Sequence of RNR (RNR1:RNR2) (P23921 whole entry): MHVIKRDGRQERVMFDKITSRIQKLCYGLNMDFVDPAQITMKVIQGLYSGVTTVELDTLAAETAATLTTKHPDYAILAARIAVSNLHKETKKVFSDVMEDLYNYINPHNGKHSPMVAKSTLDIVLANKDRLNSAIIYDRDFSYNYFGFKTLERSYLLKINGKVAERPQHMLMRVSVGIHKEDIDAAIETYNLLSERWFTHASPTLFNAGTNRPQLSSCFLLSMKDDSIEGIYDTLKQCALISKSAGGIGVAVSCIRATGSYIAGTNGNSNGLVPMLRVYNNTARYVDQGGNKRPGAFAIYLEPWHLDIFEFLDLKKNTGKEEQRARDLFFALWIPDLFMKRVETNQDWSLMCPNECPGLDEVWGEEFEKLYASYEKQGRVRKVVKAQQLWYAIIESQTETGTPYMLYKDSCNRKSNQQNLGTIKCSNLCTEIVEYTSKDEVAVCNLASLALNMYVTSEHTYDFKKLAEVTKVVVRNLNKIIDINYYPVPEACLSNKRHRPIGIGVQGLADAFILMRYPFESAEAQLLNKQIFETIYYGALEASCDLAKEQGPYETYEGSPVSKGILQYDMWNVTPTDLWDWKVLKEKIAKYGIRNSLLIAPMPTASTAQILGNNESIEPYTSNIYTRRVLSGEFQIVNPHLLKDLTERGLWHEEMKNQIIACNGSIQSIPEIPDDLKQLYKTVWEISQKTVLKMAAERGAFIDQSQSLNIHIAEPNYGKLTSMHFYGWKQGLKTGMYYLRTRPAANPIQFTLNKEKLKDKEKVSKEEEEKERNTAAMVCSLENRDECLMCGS
Sequence of RNR (RNR1:RNR2) (P31350 whole entry): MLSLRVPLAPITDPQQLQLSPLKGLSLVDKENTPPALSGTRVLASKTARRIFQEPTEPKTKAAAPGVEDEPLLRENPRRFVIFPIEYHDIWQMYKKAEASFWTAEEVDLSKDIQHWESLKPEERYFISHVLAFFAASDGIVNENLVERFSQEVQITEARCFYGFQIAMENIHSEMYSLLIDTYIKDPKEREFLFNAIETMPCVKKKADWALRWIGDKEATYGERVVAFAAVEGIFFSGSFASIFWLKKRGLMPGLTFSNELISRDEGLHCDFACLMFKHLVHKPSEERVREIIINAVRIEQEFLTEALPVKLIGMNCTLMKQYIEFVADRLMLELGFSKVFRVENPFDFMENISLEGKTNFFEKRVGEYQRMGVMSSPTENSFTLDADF
Protocol: A rapid-fire mass spectrometry (RFMS) assay was used to assess RNR enzyme activity using a 384 well plate and a robotic platform.
The plate layout included two validated reference compounds (Triapine (3-AP) and Hydroxyurea (HU)): • A dose response in duplicate; top concentration: 5 μM (3-AP) and 250 μM (HU), semi-log • dilutions. • Spike wells in triplicate randomly spotted at four concentrations: • 250 μM, 100 μM, 30 μM and 2 μM for HU • 5 μM, 2 μM, 0.6 μM and 0.04 μM for 3-AP
First, the multidrop pipes were saturated for 30 minutes with enzymatic solution. Then 30 μL of Stop solution was distributed in column 24. Next, 15 μL of enzyme was distributed in column 1 to 24. Next, a pre-incubation step of 15 minutes at room temperature occurred, followed by distribution of 15 μL of substrate solution (column 1 to 24). Next, the plate was incubated for 45 minutes at 37° C. 30 μL of Stop solution was distributed to columns 1 to 23.
The final parameters for the enzyme reactions were: • Incubation: 37° C., 45 min • [CDP]: 5 μM; [ATP]: 1 mM; [NADPH]: No • [RNR]final: 50 nM with 1:1 (RNR1:RNR2) ratio • Final volume: 30 μL • Stop solution: 6% HCOOH containing 2 μM of 15
The compounds were screened at concentrations from 10 nM to 30 μM.

Question: With Cc1ccc(F)c([C@@H](C)[C@H](NS(=O)(=O)c2ccc(Cl)cc2N(C)CCO)c2nn[nH]n2)c1C [Example 77, 4-chloro-N-((1S,2R)-2-(6-fluoro-2,3-dimethylphenyl)-1-(2H-tetrazol-5-yl)propyl)-2-((2-hydroxyethyl)(methyl)amino)benzenesulfonamide] as the compound, how does the IC50 [1] read?
Answer: 10 to 30 µM

Question: What about the IC50 (RNR (RNR1:RNR2)) of the same compound?
Answer: ≤ 0.1 µM

Question: How did the IC50 [1] turn out when Cc1ccc(F)c([C@@H](C)[C@H](NS(=O)(=O)c2ccc(Cl)c3c2OCC[C@@H]3O)c2nn[nH]n2)c1C [Example 10, (S)-5-chloro-N-((1S,2R)-2-(6-fluoro-2,3-dimethylphenyl)-1-(2H-tetrazol-5-yl)propyl)-4-hydroxychromane-8-sulfonamide] was run?
Answer: 50 to 100 µM

Question: What about the IC50 (RNR (RNR1:RNR2)) of the same compound?
Answer: ≤ 0.1 µM

Question: How did the IC50 [1] turn out when Cc1ccc(F)c([C@@H](C)[C@H](NS(=O)(=O)c2ccc(Cl)c([C@H](O)C(=O)N(C)C)c2)c2nn[nH]n2)c1C [Example 58, (S)-2-(2-chloro-5-(N-((1S,2R)-2-(6-fluoro-2,3-dimethylphenyl)-1-(2H-tetrazol-5-yl)propyl)sulfamoyl)phenyl)-2-hydroxy-N,N-dimethylacetamide] was run?
Answer: 50 to 100 µM

Question: What about the IC50 (RNR (RNR1:RNR2)) of the same compound?
Answer: 0.1 to 1 µM

Question: Cc1ccc(F)c([C@@H](C)[C@H](NS(=O)(=O)c2ccc(Cl)cc2CC(N)=O)c2nn[nH]n2)c1C [Example 23, 2-(5-chloro-2-(N-((1S,2R)-2-(6-fluoro-2,3-dimethylphenyl)-1-(2H-tetrazol-5-yl)propyl)sulfamoyl)phenyl)acetamide] was tested. Which IC50 [1] did it give?
Answer: 50 to 100 µM

Question: And the IC50 (RNR (RNR1:RNR2))?
Answer: 0.1 to 1 µM

Question: For Cc1ccc(F)c([C@@H](C)[C@H](NS(=O)(=O)c2ccc(Cl)cc2O)c2nn[nH]n2)c1C [Example 41, 4-chloro-N-((1S,2R)-2-(6-fluoro-2,3-dimethylphenyl)-1-(2H-tetrazol-5-yl)propyl)-2-hydroxybenzenesulfonamide], which IC50 [1] is on record?
Answer: 50 to 100 µM

Question: What about the IC50 (RNR (RNR1:RNR2)) of the same compound?
Answer: 0.1 to 1 µM

Question: For Cc1ccc(F)c([C@@H](C)[C@H](NS(=O)(=O)c2ccc(C#N)cc2OC(F)F)c2nn[nH]n2)c1C (racemic) [Example 69, rac-4-cyano-2-(difluoromethxoy)-N-((1R,2S)-2-(6-fluoro-2,3-dimethylphenyl)-1-(2H-tetrazol-5-yl)propyl)benzenesulfonamide], which IC50 [1] is on record?
Answer: 50 to 100 µM

Question: What about the IC50 (RNR (RNR1:RNR2)) of the same compound?
Answer: 0.1 to 1 µM

Question: How did the IC50 [1] turn out when Cc1ccc(F)c([C@@H](C)[C@H](NS(=O)(=O)c2ccc(Cl)c3c2OCC[C@H]3O)c2nn[nH]n2)c1C [Example 11, (R)-5-chloro-N-((1S,2R)-2-(6-fluoro-2,3-dimethylphenyl)-1-(2H-tetrazol-5-yl)propyl)-4-hydroxychromane-8-sulfonamide] was run?
Answer: 50 to 100 µM

Question: What about the IC50 (RNR (RNR1:RNR2)) of the same compound?
Answer: ≤ 0.1 µM

Question: Which results are given for Cc1ccc(F)c([C@@H](C)[C@H](NS(=O)(=O)c2ccc(Cl)cc2CC(=O)O)c2nn[nH]n2)c1C [Example 18, 2-(5-chloro-2-(N-((1S,2R)-2-(6-fluoro-2,3-dimethylphenyl)-1-(2H-tetrazol-5-yl)propyl)sulfamoyl)phenyl)acetic acid]?
Answer: IC50 [1]: 50 to 100 µM; IC50 (RNR (RNR1:RNR2)): ≤ 0.1 µM

Question: Cc1ccc(F)c([C@@H](C)[C@H](NS(=O)(=O)c2ccc(Cl)c(F)c2)c2nn[nH]n2)c1C [Example 49] was tested. Which IC50 [1] did it give?
Answer: 10 to 30 µM

Question: And the IC50 (RNR (RNR1:RNR2))?
Answer: 0.1 to 1 µM

Question: Which IC50 [1] does the source give for Cc1ccc(F)c([C@@H](C)[C@H](NS(=O)(=O)c2cn(C)nc2C)c2nn[nH]n2)c1C [Example 43] here?
Answer: 50 to 100 µM

Question: What about the IC50 (RNR (RNR1:RNR2)) of the same compound?
Answer: 1 to 5 µM

Question: For Cc1ccc(F)c([C@@H](C)[C@H](NS(=O)(=O)c2ccc(Cl)cc2C2CC2)c2nn[nH]n2)c1C [Example 61, 4-chloro-2-cyclopropyl-N-((1S,2R)-2-(6-fluoro-2,3-dimethylphenyl)-1-(2H-tetrazol-5-yl)propyl)benzenesulfonamide], which IC50 [1] is on record?
Answer: 10 to 30 µM

Question: What about the IC50 (RNR (RNR1:RNR2)) of the same compound?
Answer: 0.1 to 1 µM

Question: What does the source list for Cc1ccc(F)c([C@@H](C)[C@H](NS(=O)(=O)c2ccc(Cl)cc2C(F)(F)F)c2nn[nH]n2)c1C [Example 21, 4-chloro-N-((1S,2R)-2-(6-fluoro-2,3-dimethylphenyl)-1-(2H-tetrazol-5-yl)propyl)-2-(trifluoromethyl)benzenesulfonamide]?
Answer: IC50 [1]: 50 to 100 µM; IC50 (RNR (RNR1:RNR2)): 0.1 to 1 µM

Question: How did the IC50 [1] turn out when COc1nc(Cl)ccc1S(=O)(=O)N[C@H](c1nn[nH]n1)[C@H](C)c1c(F)ccc(C)c1C [Example 62, 6-chloro-N-((1S,2R)-2-(6-fluoro-2,3-dimethylphenyl)-1-(2H-tetrazol-5-yl)propyl)-2-methoxypyridine-3-sulfonamide] was run?
Answer: 10 to 30 µM

Question: What about the IC50 (RNR (RNR1:RNR2)) of the same compound?
Answer: ≤ 0.1 µM

Question: Which IC50 [1] does the source give for Cc1ccc(F)c([C@@H](C)[C@H](NS(=O)(=O)C2CCCCC2)c2nn[nH]n2)c1C [Example 8, N-((1S,4S)-2-(6-fluoro-2,3-dimethylphenyl)-1-(2H-tetraozl-5-yl)propyl)cyclohexanesulfonamide] here?
Answer: 50 to 100 µM

Question: What about the IC50 (RNR (RNR1:RNR2)) of the same compound?
Answer: 1 to 5 µM

Question: For Cc1ccc(F)c([C@@H](C)[C@H](NS(=O)(=O)c2ccc(Cl)cc2CC(=O)N(C)C)c2nn[nH]n2)c1C [Example 22, 2-(5-chloro-2-(N-((1S,2R)-2-(6-fluoro-2,3-dimethylphenyl)-1-(2H-tetrazol-5-yl)propyl)sulfamoyl)phenyl)-N,N-dimethylacetamide], which IC50 [1] is on record?
Answer: 30 to 50 µM

Question: And the IC50 (RNR (RNR1:RNR2))?
Answer: 0.1 to 1 µM

Question: For COc1cc(Cl)ccc1S(=O)(=O)N[C@H](c1nn[nH]n1)[C@H](C)c1c(F)ccc(C)c1C [Example 1, 4-chloro-N-[(1S,2R)-2-(6-fluoro-2,3-dimethylphenyl)-1-(2H-1,2,3,4-tetrazol-5-yl)propyl]-2-methoxybenzene-1-sulfonamide], which IC50 [1] is on record?
Answer: ≤ 10 µM

Question: And the IC50 (RNR (RNR1:RNR2))?
Answer: ≤ 0.1 µM

Question: How did the IC50 [1] turn out when [2H]C([2H])([2H])[C@@]1(O)CCOc2c(S(=O)(=O)N[C@H](c3nn[nH]n3)[C@H](C)c3c(F)ccc(C)c3C)ccc(Cl)c21 [Example 12, (R)-5-chloro-N-((1S,2R)-2-(6-fluoro-2,3-dimethylphenyl)-1-(2H-tetrazol-5-yl)propyl)-4-hydroxy-4-(methyl-d3)chromane-8-sulfonamide] was run?
Answer: 10 to 30 µM

Question: What about the IC50 (RNR (RNR1:RNR2)) of the same compound?
Answer: ≤ 0.1 µM

Question: For Cc1cc(S(=O)(=O)N[C@H](c2nn[nH]n2)[C@H](C)c2c(F)ccc(C)c2C)ccc1Cl [Example 48], which IC50 [1] is on record?
Answer: 10 to 30 µM

Question: And the IC50 (RNR (RNR1:RNR2))?
Answer: 0.1 to 1 µM

Question: Which results are given for Cc1ccc(F)c([C@@H](C)[C@H](NS(=O)(=O)c2cccc3[nH]c(=O)ccc23)c2nn[nH]n2)c1C [Example 47]?
Answer: IC50 [1]: 50 to 100 µM; IC50 (RNR (RNR1:RNR2)): 0.1 to 1 µM

Question: How did the IC50 [1] turn out when Cc1ccc(F)c([C@@H](C)[C@H](NS(=O)(=O)c2ccc(Cl)c(C)c2Cl)c2nn[nH]n2)c1C [Example 55, 2,4-dichloro-N-((1S,2R)-2-(6-fluoro-2,3-dimethylphenyl)-1-(2H-tetrazol-5-yl)propyl)-3-methylbenzenesulfonamide] was run?
Answer: 10 to 30 µM

Question: And the IC50 (RNR (RNR1:RNR2))?
Answer: ≤ 0.1 µM

Question: Cc1ccc(F)c([C@@H](C)[C@H](NS(=O)(=O)c2ccc(Cl)cc2CC(=O)N2CCCCC2)c2nn[nH]n2)c1C [Example 24, 4-chloro-N-((1S,2R)-2-(6-fluoro-2,3-dimethylphenyl)-1-(2H-tetrazol-5-yl)propyl)-2-(2-oxo-2-(piperidin-1-yl)ethyl)benzenesulfonamide] was tested. Which IC50 [1] did it give?
Answer: 10 to 30 µM

Question: What about the IC50 (RNR (RNR1:RNR2)) of the same compound?
Answer: 0.1 to 1 µM

Question: Cc1ccc(F)c([C@@H](C)[C@H](NS(=O)(=O)c2ccc(Cl)cc2C(F)F)c2nn[nH]n2)c1C [Example 50, 4-chloro-2-(difluoromethyl)-N-((1S,2R)-2-(6-fluoro-2,3-dimethylphenyl)-1-(2H-tetrazol-5-yl)propyl)benzenesulfonamide] was tested. Which IC50 [1] did it give?
Answer: 30 to 50 µM

Question: And the IC50 (RNR (RNR1:RNR2))?
Answer: 0.1 to 1 µM

Question: Cc1ccc(F)c([C@@H](C)[C@H](NS(=O)(=O)c2ccc(Cl)cc2N2CCN(C)CC2)c2nn[nH]n2)c1C [Example 79, 4-chloro-N-((1S,2R)-2-(6-fluoro-2,3-dimethylphenyl)-1-(2H-tetrazol-5-yl)propyl)-2-(4-methylpiperazin-1-yl)benzenesulfonamide] was tested. Which IC50 [1] did it give?
Answer: 50 to 100 µM

Question: What about the IC50 (RNR (RNR1:RNR2)) of the same compound?
Answer: 0.1 to 1 µM

Question: What does the source list for Cc1ccc(F)c([C@@H](C)[C@H](NS(=O)(=O)c2ccc(Cl)c3c2OCC[C@]3(C)O)c2nn[nH]n2)c1C (single isomer, unassigned) [Example 3]?
Answer: IC50 [1]: 10 to 30 µM; IC50 (RNR (RNR1:RNR2)): ≤ 0.1 µM

Question: How did the IC50 [1] turn out when CNc1cc(Cl)ccc1S(=O)(=O)N[C@H](c1nn[nH]n1)[C@H](C)c1c(F)ccc(C)c1C [Example 75, 4-chloro-N-((1S,2R)-2-(6-fluoro-2,3-dimethylpehnyl)-1-(2H-tetrazol-5-yl)propyl)-2-(methylamino)benzenesulfonamide] was run?
Answer: 10 to 30 µM

Question: What about the IC50 (RNR (RNR1:RNR2)) of the same compound?
Answer: 0.1 to 1 µM

From patent publication US20240158383A1, “RIBONUCLEOTIDE REDUCTASE (RNR) INHIBITORS AND USES THEREOF” (Boundless Bio, Inc., priority 2021, published 2024)
